The text below walks through data of article PMC6154613, “Investigation of the Anti-Leishmania (Leishmania) infantum Activity of Some Natural Sesquiterpene Lactones” (Molecules : A Journal of Synthetic Chemistry and Natural …, 2017).

Each structure is given as a SMILES string.

One data set has as its system L. (L.) mexicana. Set-up: method as in PMID 18576826. The following applies: cited from earlier work.
For data set [1], the system named is L. (L.) infantum promastigotes. The data set can be described thus: Anti-promastigote activity, MTT viability assay. Format: cell-based, Leishmania (Leishmania) infantum. The following applies: for IC50: Leishmania infantum, 48 h incubation, MTT, value (SD). Here is the method: (§1) L. (L.) infantum (MHOM/BR/1972/LD) promastigotes were maintained in M-199 medium supplemented with 10% heat-inactivated fetal bovine serum (FBS) (Gibco, Thermo Fisher Scientific, São Paulo, Brazil), 0.25% hemin (Sigma-Aldrich), and 5% human urine at 24 °C. Amastigotes were obtained from the spleen of previously infected hamsters by differential centrifugation. Macrophages were collected from the peritoneal cavity of BALB/c mice by washing with RPMI-1640 medium supplemented with 10% FBS, and were maintained at 37 °C in a 5% CO2-humidified incubator. Murine fibroblasts NCTC (clone L929 ATCC) were used to evaluate the cytotoxicity of the tested compounds. NCTC cells were maintained in M-199 medium supplemented with 10% FBS and 20 μg/mL gentamicin at 37 °C in a 5% CO2-humidified incubator.
Compounds were dissolved in DMSO and diluted in M-199 medium in 96-well microplates, with the highest concentration of 150 μM. Promastigotes of L. (L.) infantum in the late growth-phase were seeded at 1 × 10^6/well and incubated with the compounds for 48 h. The viability of cells was determined using the MTT assay. An internal control group was used with 0.5% DMSO (maximal concentration). Miltefosine was used as standard drug.
(§2) Data processing and statistical analyses was done with GraphPad Prism® 5.0 (GraphPad Software, Inc. La Jolla, CA, USA). For determination of antileishmanial activity and NCTC cytotoxicity, the IC50 and CC50 values were calculated after normalization using sigmoidal dose-response curves. The evaluation of statistical significance of multiple pairs was done with a Tukey's range test, which corrects for the increased probability of a type I error during multiple comparison.

The nature of data set [2]: Mammalian cytotoxicity, MTT assay. The following applies: mouse, NCTC murine fibroblasts, 48 h, MTT, value (SD); for CC50 at 48 h: NCTC clone L929 fibroblasts. Format: cell-based, murine. As for the experimental part:
as §1
(§3) NCTC cells were seeded at 6 × 10^4 in 96-well microplates and incubated with the compounds for 48 h. An internal control group was used with 0.5% DMSO (maximal concentration). The quantification of viable cells was assessed by the MTT assay. The selectivity index (SI) was determined using the following equation: SI = CC50 in NCTC cells / IC50 against amastigotes.
as §2
On the technique in general: Tetrazolium dyes change colour on reduction, which living cells bring about.

For data set [3], the system named is L. (L.) infantum intracellular amastigotes. The data set can be described thus: Activity against intracellular amastigotes in peritoneal macrophages, Giemsa staining and light microscopy. It is filed as cell-based, Leishmania (Leishmania) infantum. The following applies: for IC50: Leishmania infantum, Peritoneal macrophage, intracellular amastigotes in murine peritoneal macrophages, 120 h, highest concentration 100 μM, value (SD). As for the experimental part:
as §1
Murine peritoneal macrophages were collected from the peritoneal cavity of BALB/c mice, and the macrophages were seeded at 1 × 10^5/well for 24 h in a 16-well slide. Amastigotes were prepared (as described previously), seeded at a ratio 1:10 (macrophages:amastigotes) and kept at 37 °C in a 5% CO2-humidified incubator for 24 h. Test compounds were incubated to the highest concentration of 100 μM with infected macrophages for 120 h. Miltefosine was used as a standard drug. Subsequently, the cells were fixed with methanol, stained with Giemsa (Merck KGaA, Darmstadt, Germany), and observed using a light microscope. The parasite burden was determined by the number of infected macrophages out of 400 cells.
as §2

For data set [4], the system named is axenic amastigotes (extracellular) of L. (L.) amazonensis. More on the design: method as in PMID 24913205. The settings on record: cited from earlier work.
In data set [5] the test system is L. (L.) infantum promastigotes. Put plainly: ROS production, H2DCFDA, flow cytometry. Format: cell-based, Leishmania (Leishmania) infantum. As for the experimental part:
(§4) The Δψm and ROS content of promastigotes treated with compound 1 were determined using the fluorescence probes rhodamine 123 and H2DCFDA (Molecular Probes Inc., Eugene, OR, USA), respectively, and further evaluated by flow cytometry. Briefly, 2 × 10^6 promastigotes/well cultured until the late growth-phase were treated with 12 μM of 1 (corresponding to the IC99 value obtained with 1 × 10^6 parasites/well). The parasites were incubated in HANKS’ balanced salts solution (HBSS; Sigma-Aldrich, Carlsbad, CA, USA), supplemented with 10 mM D-Glucose, at 26 °C for 1 h. Afterwards the parasites were washed and stained with rhodamine 123 (0.3 μg/mL) or H2DCFDA (5 μM) for 15 min under absence of light. The washed parasites were resuspended in PBS and the fluorescence was measured in a Flow Cytometer Attune Nxt (ThermoFisher Scientific, Waltham, MA, USA) using the forward scatter (FSC, relative cell size) and the side scatter detectors (SSC, cell granulometry or internal complexity), FL1-A (detecting fluorescence emission 530 ± 15 nm), and Attune Nxt software. As control, untreated promastigotes (not stained with Rd123 or H2DCFDA) served to monitor the basal fluorescence. […] Samples were tested in duplicate. Two independent assays were performed.

For data set [6], the system named is L. (L.) infantum promastigotes. The data set can be described thus: Ultrastructural analysis by transmission electron microscopy. It is filed as cell-based, Leishmania (Leishmania) infantum. The following applies: 0.5-4 h incubation; 1 μM or 120 μM. Here is the method: Ultrastructural studies were performed with promastigotes treated with compound 1 by TEM. L. (L.) infantum promastigotes in the late growth phase were washed and incubated with 120 μM of 1 (corresponding to the IC99 value obtained with 1 × 10^6 parasites/well) at 2 × 10^7/well in 200 μL M-199 medium. Compound incubation was performed for 0.5, 1, 2, 3, and 4 h under the previously described growth conditions. After centrifugation at 2800 rpm for 10 min, the parasites were fixed with 1 mL glutaraldehyde and the sample processing was performed according to Duarte et al.. The TEM imaging was performed on a JEOL 1011 transmission electron microscope (Peabody, MA, USA).

Data set [7] deals with L. (L.) infantum promastigotes plasma membrane. Put plainly: Plasma membrane permeability, SYTOX Green. Format: cell-based, Leishmania (Leishmania) infantum. The settings on record: 3 and 6 μM, 60 min, compared with untreated parasites. As for the experimental part: Late-growth-phase (non-stationary) promastigotes were incubated with the probe SYTOX Green (Molecular Probes Inc., Eugene, OR, USA), as previously described. […] 1 was added at 3 and 6 μM to 1 × 10^6 cells/well, at 24 °C. The fluorescence was measured every 20 min (0–80 min). At the end of the assay (80 min), 0.1% Triton X-100 was added to all wells to obtain the maximum permeabilization of parasites. Fluorescence intensity was determined using a fluorimetric microplate reader (FilterMax F5 Multi-Mode Microplate Reader-Molecular Devices, Sunnyvale, CA, USA) with excitation and emission wavelengths of 485 and 520 nm, respectively. The following internal controls were used during the evaluation: (i) the background fluorescence of the compound at the respective wavelengths; (ii) the possible interference of DMSO; (iii) untreated promastigotes; and (iv) medium without any cells. Samples were tested in duplicate.

Data set [8] relates to Murine fibroblasts NCTC (clone L929 ATCC). Put plainly: Mammalian cytotoxicity, MTT assay. Format: cell-based. The settings on record: NCTC cells. Here is the method: as §1, §3, §2
Data set [9] relates to L. (L.) infantum promastigotes. The data set can be described thus: Mitochondrial membrane potential, rhodamine 123, flow cytometry. It is filed as cell-based, Leishmania (Leishmania) infantum. The settings on record: 6 μM, 1 h, compared with untreated parasites. Here is the method:
as §4, with “Briefly, 2 × 10^6 promastigotes/well cultured until the late growth-phase were treated with 12 μM of 1 (corresponding to the IC99 value obtained with 1 × 10^6 parasites/well).” left out
Background: Flow cytometry measures light scatter and fluorescence of single cells or particles in a stream.

For data set [10], the system named is peritoneal macrophages of BALB/c mice. The data set can be described thus: Nitric oxide production in macrophages, Griess assay. Format: cell-based, Mus musculus. The following applies: 3 μM, 24 h, similar levels as LPS. As for the experimental part:
The NO production of macrophages treated with 1 was performed using the Griess assay. Briefly, 1 × 10^5/well peritoneal macrophages of BALB/c mice were seeded overnight in a 96-well plate. Fresh medium containing compound 1 at 3 µM (corresponding to the CC25 value obtained with NCTC cells) or 5 µg/mL LPS (positive control) were added and incubated for 24 h at 37 °C. Afterwards the NO content of each of the cultures’ supernatant was analysed using the Griess assay. The samples’ NO content was determined by means of a standard curve prepared with NaNO2 at concentrations from 0 to 400 μM.

Turning to `C=C1C(=O)O[C@@H]2C[C@@H](C)[C@@H]3C=CC(=O)[C@@]3(C)[C@@H](O)[C@H]12` [helenalin, reference compound], the “activity against L. (L.) mexicana” value in the data set on L. (L.) mexicana was “activity against L. (L.) mexicana at low concentrations”.
`C=C1C(=O)O[C@@H]2C[C@@]3(C)CCC[C@H](C)C3=C[C@H]12` [Alantolactone (5), Alantolactone]: in data set [1], the IC50 (commonly the concentration that gives 50% inhibition) was found to be 9.94 µM. The CC50 (usually the concentration giving 50% cytotoxicity) at 48 h in data set [2] came out at 11 µM.
The compound `CCCCCCCCCCCCCCCCOP(=O)([O-])OCC[N+](C)(C)C` [Miltefosine, reference compound] had an IC50 in [1] of 16.7 µM.
Regarding `C=C1C(=O)O[C@H]2[C@H]1CC/C(C)=C/CC[C@@]1(C)O[C@@H]21` [Parthenolide (6), Parthenolide], the IC50 in data set [1] amounted to 59.1 µM; in data set [3] it was 89.2 µM. In data set [2], this compound displayed a CC50 at 48 h of 58.2 µM. For the same compound, the “effect on mitochondrial membrane potential” value in [4] is reported as “mitochondrial depolarization”.
Consider `C=C1C(=O)O[C@@H]2/C=C(/CO)C3=CC(=O)[C@@](C)(C[C@@H](OC(=O)/C(C)=C/C)[C@@H]12)O3` [Budlein A (7), Budlein A], for which the IC50 in data set [1] was 28 µM. It took 9.05 µM to reach half-maximal cytotoxicity in [2] (CC50).
Turning to `C=C1C(=O)OC2CC(C)C3C=CC(=O)C3(C)C(OC(C)=O)C12` (centres unmarked) [Helenalin acetate (1), Helenalin acetate], the “ROS production (H2DCFDA)” value in data set [5] (compound 1, 1 h of treatment) was “no alteration of ROS”. The IC50 in [1] is 3.53 µM; in data set [3], 1.15 µM. This compound also registered an IC99 value in [1] (promastigotes, 1 × 10^6 parasites/well) of 6 µM. For the same compound, the “ultrastructural alterations (TEM)” value in data set [6] is “intense cytoplasmatic vacuolization, formation of autophagosomes, swelling of the mitochondrion, and chromatin decondensation”. Moreover, the “infection of macrophages (light microscopy)” value in data set [3] (0.33 µM, Figure S1c) was “relatively high amastigote number”; in data set [3] (1 µM, Figure S1b) it was “A large number of infected macrophages is visible”; in [3] (3 µM, Figure S1a), “very few infected macrophages with each very few amastigotes”. For the same compound, in [7], the “SYTOX Green fluorescence (plasma membrane permeability)” value is given as “No significant increase of SYTOX Green fluorescence”. For the same compound, the CC50 in [2] was found to be 8.12 µM. Moreover, the CC25 value in data set [8] amounted to 3 µM. In addition, the “alteration of the plasma membrane” value in the data set with L. (L.) mexicana (L. (L.) mexicana promastigotes, long-term treatment) was “no alteration of the plasma membrane”. The “decrease of Rd123 fluorescence (Δψm)” value in [9] stood at 60%. Further, the “production of NO” value in data set [10] is “significantly increased the production of NO”.
Take `C=C1C(=O)O[C@@H]2[C@H]3C(C)=CC[C@@]34O[C@@]4(C)CC[C@@H]12` [Arglabin (3), Arglabin]: the figures for the IC50 in [1] and in data set [3] were 30 µM and 7.33 µM, respectively. In [2], this compound registered a CC50 of 39.4 µM.
As to `CC[C@H]1/C=C/C=C/C[C@@H](C)[C@H](O)[C@@](C)(O)C(=O)[C@@H](C)[C@H](O)[C@@H](C)C(=O)[C@@H](C)[C@H](O)[C@@H](C)/C=C/C(=O)O[C@@H]2[C@H](C)[C@H](CC1)O[C@]1(CC[C@H](C)[C@H](C[C@@H](C)O)O1)[C@H]2C` [oligomycin, reference compound], the “ROS production (H2DCFDA)” value in [5] (oligomycin 20 μM, positive control) is “increased the ROS production over time”.
On to `C=C(CO)C(=O)O[C@H]1CC(=C)[C@@H]2C[C@H](O)C(=C)[C@@H]2[C@H]2OC(=O)C(=C)[C@@H]21` [Cynaropicrin (4), Cynaropicrin], for which the values for the IC50 in [1] and in data set [3] were 30.6 µM and 6.88 µM, respectively. The half-maximal cytotoxic concentration (CC50) at 48 h in data set [2] was 33.5 µM.
`C=C1C(=O)O[C@H]2C[C@@H](C)[C@@H]3C=CC(=O)[C@@]3(C)[C@H](O)[C@H]12` [Mexicanin I (2), Mexicanin I]: the IC50 was 4.89 µM in data set [1] and 1.73 µM in data set [3]. Moreover, it took 9.2 µM to reach half-maximal cytotoxicity in data set [2] (CC50). In addition, the “activity against L. (L.) mexicana” value in the data set on L. (L.) mexicana is listed as “activity against L. (L.) mexicana at low concentrations”.
